“And” between values parts separate entries of the source, which are not always exact repeats. Equal values may be shown once. The source made the active and inactive calls.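 Rule for the calls: active = compounds giving half or more protection of infected cells from virus-caused growth loss, again on retest; inactive = the rest.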 Where a SMILES comes first, the peptide text is derived from it. [ ]: non-standard residue; d: D form. The star is where a group is joined. Boc = CC(C)(C)OC(=O)*; Lac = C[CH](O)C(=O)O; OBn = c1ccc(CO*)cc1 Some results are limits rather than exact numbers.

The test system of this assay is CEM cells HIV-1 protection, formazan growth assay. Nature of the assay: NCI AIDS Antiviral Assay. Conditions: for IC50: measured here: growth of uninfected CEM cells. A digest of the protocol:
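Five concentrations of each compound were applied to infected and uninfected human CEM cells. Protection from HIV-1 was judged from growth measured with a soluble formazan assay.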

As to `CC(=O)c1ccc2c(c1)CC1(C2)Cc2cc3c(c(C(=O)O)c2C1)CCC3` (stereo not drawn), the EC50 was greater than 200 µM and the IC50 was 61.7 µM. As for `COc1cc(/C=C2\C(=O)N(c3ccc(NC(C)=O)cc3)C(c3ccccc3)S2(=O)=O)cc(OC)c1OC` (stereo not drawn), the EC50 is greater than 200 µM and the 50% inhibitory concentration (IC50) was found to be 87.1 µM. On to `O=c1c(SSc2coc3ccccc3c2=O)coc2ccccc12`, for which the EC50 is greater than 200 µM and the half-inhibitory concentration (IC50) stood at 5.13 µM. Consider `C/C(O)=C(/C=NC(=S)c1ccncc1)C(=O)Nc1ccccc1`, for which the EC50 is greater than 200 µM and the IC50 was greater than 200 µM. Regarding `COc1ccc2c(c1)CCN1CCCc3ccccc3C21` (stereo not drawn), the EC50 was greater than 200 µM and the concentration for half-maximal inhibition (IC50) was determined as 26.9 µM. Regarding `N=C(N)SCCNC[C@@H](O)[C@@H](O)CNCCSC(=N)N`, the EC50 is greater than 537 µM and the IC50 was determined as 437 µM.

With `Oc1ccc(Cl)cc1C1=NC(/N=C\c2ccccc2)=NC(c2ccccc2)C1` (stereo not drawn), the EC50 was greater than 200 µM and the IC50 is 8.91 µM. With `COc1ccc(C2=NOP(c3ccccc3)(c3ccccc3)(c3ccccc3)C2)cc1`, the EC50 is greater than 105 µM and the half-maximal inhibitory concentration (IC50) was 0.661 µM. As for `O=c1oc2ccc(O)cc2c2ccccc12`, the EC50 was greater than 170 µM and the IC50 stood at 38 µM. On to `COC(=O)C1CC=C(SC(=O)c2ccccc2)N1C(=O)c1ccccc1` (stereo not drawn), for which the EC50 was greater than 200 µM and the IC50 was greater than 200 µM. On to `CCCCCc1cc(O)cc2c1Oc1cc(O)cc(C(=O)CCCC)c1C(=O)O2`, for which the EC50 was greater than 56.2 µM and the IC50 turned out to be 28.2 µM. Turning to `C[N+](C)(C)CC1CCC(C[N+](C)(C)C)C1=NO` (stereo not drawn), the EC50 is greater than 501 µM and the IC50 is greater than 501 µM. Turning to `COC(=O)N1CC(=O)C(C(=O)NC23CC4CC(CC(C4)C2)C3)C1` (stereo not drawn), the EC50 is greater than 776 µM and the half-inhibitory concentration (IC50) was found to be 141 µM. On to `NC(N)=NS(=O)(=O)c1ccc(NNc2c3ccccc3nc3c(C(=O)Nc4ccc(S(=O)(=O)Nc5ncccn5)cc4)cccc23)cc1`, for which the EC50 was greater than 100 µM and the concentration for half-maximal inhibition (IC50) was 22.9 µM. For the compound `COC(=O)CC(CNC(=O)OCc1ccccc1)OCc1ccc(OC)cc1` (stereo not drawn), the EC50 was greater than 200 µM and the IC50 is greater than 200 µM. Consider `C(C[P+](c1ccccc1)(c1ccccc1)c1ccccc1)=C(c1ccccc1)c1ccccc1`, for which the EC50 is greater than 200 µM and the half-inhibitory concentration (IC50) was 1.05 µM. In the case of `COC(=O)c1cc(=O)c2c(ccc3oc(=O)ccc32)[nH]1`, the EC50 was greater than 200 µM and the IC50 amounted to 170 µM. On the same counts, the results for `N[C@@H](CSSC[C@H](N)C(=O)OCc1ccccc1)C(=O)OCc1ccccc1` are greater than 200 µM and 83.2 µM. For the compound `CCCCCC1=C(c2ccc(OC)c(S(=O)(=O)N(C)C)c2)c2cc(S(=O)(=O)N(C)C)c(OC)cc2S1(=O)=O`, the EC50 was greater than 32.4 µM and the IC50 is greater than 32.4 µM. As to `Oc1[nH]c2ccccc2c1N=NC(=S)NCc1ccccn1`, the EC50 was greater than 2 µM and the IC50 was 0.0295 µM. The matching figures for `COc1ccc(S(=O)(=O)OC)cc1C(=O)c1cc(S(=O)(=O)OC)ccc1OC`: greater than 23.4 µM and greater than 23.4 µM. As to `N#C/C(=C/c1cccc(Oc2ccccc2)c1)c1ccccc1`, the EC50 is greater than 6.76 µM and the half-inhibitory concentration (IC50) was greater than 6.76 µM.

In the case of `c1n[nH]cc1C12C3C4C5C3C1C5C42` (stereo not drawn), the EC50 was greater than 200 µM and the IC50 came out at 120 µM.

For `CC(=O)/C(C)=C(/C)[O-].CC(=O)/C(C)=C(/C)[O-].NCCNCCCNC(=O)c1cccc2cc3ccccc3nc12.[Co+3].[O-][Cl+3]([O-])([O-])[O-]`, the EC50 is greater than 100 µM and the IC50 was found to be 3.47 µM. As for `c1ccc(C2SCc3nc4ccccc4n32)cc1` (stereo not drawn), the EC50 was greater than 141 µM and the half-inhibitory concentration (IC50) came to 35.5 µM.

Regarding `COC1=CC2C3Cc4c(-c5cc(OC)c(O)c6c5CC5C7C=C(OC)C(=O)CC67CCN5C)cc(OC)c(O)c4C2(CCN3C)CC1=O` (stereo not drawn), the EC50 was greater than 200 µM; the half-maximal inhibitory concentration (IC50) was > 200 µM and 132 µM and 117 µM. On to `O=C(Nc1ccccc1)c1cc(S(=O)(=O)Nc2n[nH]c(=O)n2-c2ccccc2)c(S)cc1Cl`, for which the EC50 was 89.1 µM and the IC50 is greater than 200 µM.

As to `CC(=O)c1cccc(NC(=O)C(=O)C(C2OC(=O)c3ccccc32)[N+](=O)[O-])c1` (stereo not drawn), the EC50 was greater than 468 µM and the half-maximal inhibitory concentration (IC50) was greater than 468 µM. Take `C=CCNC1=C2C[C@@H](C)C[C@@H](OC)[C@@H](OC(=O)CCCN)[C@H](C)/C=C(\C)[C@@H](OC(N)=O)[C@H](OC)/C=C\C=C(/C)C(=O)NC(=CC1=O)C2=O`: the EC50 is greater than 200 µM and the IC50 was 5.5 µM.

With `Cc1ccc(S(=O)(=O)c2ccccn2)cc1`, the half-maximal effective concentration (EC50) was 132 µM and the 50% inhibitory concentration (IC50) came out at 380 µM. For `COc1ccc(/C=C2/C[N+](C)(C)C/C(=C/c3ccc(OC)cc3)C2=O)cc1`, the EC50 is greater than 513 µM and the IC50 was found to be 36.3 µM. In the case of `O=C1OC([C@H](O)c2cccnc2)c2ccccc21` (stereo partly drawn), the EC50 is greater than 200 µM and the concentration for half-maximal inhibition (IC50) is greater than 200 µM.

As for `O=c1c2ccccc2oc2nc3ccc(Cl)cc3n12`, the EC50 is greater than 37.2 µM and the IC50 is greater than 37.2 µM. On to `CC(=O)Nc1ccc2c(C(=O)O)c(C)c(=O)[nH]c2n1`, for which the EC50 was greater than 200 µM and the concentration for half-maximal inhibition (IC50) was 112 µM. For `c1cc2c3c(c1)ncn3C[C@@H]1CCCN1C2`, the EC50 is greater than 295 µM and the 50% inhibitory concentration (IC50) is greater than 295 µM. Consider `O=C1C(c2ccc(Cl)cc2)=[N+]([O-])c2ccccc21`, for which the result was inactive. Consider `COc1ccc(C(=O)CCC(NC(C)=O)C(=O)O)cc1` (stereo not drawn), for which the EC50 was greater than 100 µM and the IC50 is greater than 100 µM.

For `CC/C(Br)=C1\CC2c3c(c4ccccc4n3C)CC(C1=O)N2Cc1ccccc1` (stereo not drawn), the result was inactive. As to `OC(CCN1CCOCC1)c1ccc(Sc2ccccc2)cc1` (stereo not drawn), the EC50 is greater than 200 µM and the 50% inhibitory concentration (IC50) amounted to 36.3 µM. For `Cc1occc1C(=S)Nc1ccc(Cl)c(C(=O)OC2CCCC2)c1`, the 50% effective concentration (EC50) was 0.00295 µM and the IC50 turned out to be 16.6 µM. As to `O=C1NC(Cc2ccc(Cl)cc2)C(=O)N2CCCC12` (stereo not drawn), the EC50 was greater than 200 µM and the half-inhibitory concentration (IC50) amounted to 95.5 µM.

For `COc1cc(/C=C/c2cc(O)cc(C3OC(CO)C(O)C(O)C3O)c2)ccc1O` (stereo not drawn), the result was inactive.

Turning to `CCN(CC)C(=S)SS(=O)(=O)c1ccccc1C(=O)O`, the EC50 was greater than 200 µM and the half-inhibitory concentration (IC50) amounted to 112 µM. Regarding `CC(=O)OCC1OC(Nn2c(=O)[nH]c3ccccc3c2=O)C(OC(C)=O)C(OC(C)=O)C1OC(C)=O` (stereo not drawn), the EC50 was greater than 158 µM and the IC50 came to 117 µM. `Cc1ccc2nc(NC(=O)C(=O)C(C#N)c3nc4ccccc4s3)sc2c1` (stereo not drawn): the EC50 is greater than 66.1 µM and the IC50 was greater than 66.1 µM.

Take `CC(=O)[n+]1nc(-c2nc(N)nc(NC3C4CC5CC(C4)CC3C5)n2)oc1-c1ccc(Cl)cc1` (stereo not drawn): the EC50 was greater than 11.2 µM and the IC50 is greater than 11.2 µM. Take `COc1cc2c(c(OC)c1OC)-c1ccc(SC)c(=O)cc1C(NC=O)CC2` (stereo not drawn): the EC50 is greater than 0.002 µM and the concentration for half-maximal inhibition (IC50) came to 0.0011 µM. In the case of `C/C(=C1/CCCC2(N=NCC2c2ccccc2)C1=O)c1ccccc1` (stereo not drawn), the EC50 is greater than 8.32 µM and the IC50 is greater than 8.32 µM.

As to `CC1CCCC(C)N1Cc1cccnc1` (stereo not drawn), the result was inactive. For `CC(OC(=O)C(Cc1ccccc1)NC(=O)C(Cc1ccccc1)NC(=O)OC(C)(C)C)C(=O)OCc1ccccc1` (stereo not drawn) (Boc-Phe-Phe-[Lac]-OBn; configuration not given here), the EC50 is greater than 200 µM and the IC50 was determined as 105 µM. As for `CC1(C)CCCC2CC2CCC(C)(C)C1=O` (stereo not drawn), the EC50 was greater than 200 µM and the 50% inhibitory concentration (IC50) worked out at 105 µM. The matching figures for `Cc1ccc(S(=O)(=O)CN2C(=O)C(c3ccccc3)(c3ccccc3)C23OC(c2ccc(Cl)cc2)=CC3=O)cc1` (stereo not drawn): greater than 200 µM and greater than 200 µM. On the same counts, the results for `O=C1[C@@H]2CC(O)[C@@H]3C(=O)[C@@H]4CC(O)[C@H]1[C@@H]4[C@H]23` (stereo partly drawn) are greater than 1120 µM and greater than 1120 µM. Turning to `N#CNC1=NCOCN1`, the EC50 was greater than 708 µM and the IC50 was greater than 708 µM. For the compound `Cc1cc(=O)oc2cc(SC(=O)N(C)C)ccc12`, the EC50 is greater than 200 µM and the IC50 was greater than 200 µM. As to `COc1ccc(Cn2c3ccc([N+](=O)[O-])cc3c(=O)n2Cc2ccccn2)cc1`, the EC50 is greater than 200 µM and the half-inhibitory concentration (IC50) is greater than 200 µM. Take `COC(=O)NC(Cc1ccccc1)NC(=O)OC(C)(C)C` (stereo not drawn): the EC50 is greater than 200 µM and the IC50 is greater than 200 µM. Turning to `FC(F)(F)c1ccc(C2ON=C(c3ccccc3)N2C23CC4CC(CC(C4)C2)C3)cc1` (stereo not drawn), the EC50 is greater than 200 µM and the IC50 is greater than 200 µM.

Take `O=C(CC(O)c1cccnc1)CC(O)c1cccnc1` (stereo not drawn): the EC50 is greater than 200 µM and the IC50 is 2.82 µM. As to `CC12CCC(=O)C[C@H]1CCC(OC=O)C2Br` (stereo partly drawn), the result was inactive.

As for `Cc1cccc2nc3nc(Cl)c(Cl)nc3n12`, the EC50 is greater than 200 µM and the IC50 came to 129 µM. In the case of `CC(=O)/C=C(\c1ccccc1)c1c(O)c2ccccc2oc1=O`, the EC50 was greater than 200 µM and the 50% inhibitory concentration (IC50) is 141 µM. The matching figures for `Cc1ccc(NC(=O)OCC(COc2ccc(Cl)cc2Cl)OC(=O)Nc2ccc(C)cc2)cc1` (stereo not drawn): greater than 2.88 µM and greater than 2.88 µM. Regarding `Cc1cc(C)nc(NS(=O)(=O)c2ccc(NC(=O)c3cccc4c(Nc5ccc(S(=O)(=O)Nc6nc(C)cc(C)n6)cc5)c5ccc(Cl)cc5nc34)cc2)n1`, the EC50 is greater than 85.1 µM and the half-inhibitory concentration (IC50) was greater than 85.1 µM. On to `COc1ccc(-c2c(C3=NCCCN3)nnn2-c2ccccc2)cc1`, for which the EC50 was greater than 759 µM and the 50% inhibitory concentration (IC50) is 282 µM. Consider `Nc1ccn(CC(=O)NCCO)c(=O)n1`, for which the EC50 is greater than 200 µM and the half-inhibitory concentration (IC50) is greater than 200 µM.

On to `CN(C)c1cc(CNCCS)nc(CNCCS)c1`, for which the EC50 was greater than 200 µM and the IC50 was 3.47 µM. As to `O=C(c1ccc(O)c([N+](=O)[O-])c1)c1ccc(O)c([N+](=O)[O-])c1`, the EC50 is greater than 200 µM and the IC50 worked out at 45.7 µM.

Consider `CN(C)c1ccc(/C=C2/N=C(c3ccccc3)OC2=O)cc1`, for which the EC50 is greater than 200 µM and the IC50 worked out at 141 µM.

The record behind these values is PubChem BioAssay AID179 (DTP/NCI, 2004).
